The values below come from patent US8710038B2, “Pyrazole kinase modulators and methods of use” (Exelixis, Inc., priority 2004, dated 2014).

Test [1] has as its target T1, EphB4 (Homo sapiens, UniProt P54760).
T1 sequence (P54760 16-987): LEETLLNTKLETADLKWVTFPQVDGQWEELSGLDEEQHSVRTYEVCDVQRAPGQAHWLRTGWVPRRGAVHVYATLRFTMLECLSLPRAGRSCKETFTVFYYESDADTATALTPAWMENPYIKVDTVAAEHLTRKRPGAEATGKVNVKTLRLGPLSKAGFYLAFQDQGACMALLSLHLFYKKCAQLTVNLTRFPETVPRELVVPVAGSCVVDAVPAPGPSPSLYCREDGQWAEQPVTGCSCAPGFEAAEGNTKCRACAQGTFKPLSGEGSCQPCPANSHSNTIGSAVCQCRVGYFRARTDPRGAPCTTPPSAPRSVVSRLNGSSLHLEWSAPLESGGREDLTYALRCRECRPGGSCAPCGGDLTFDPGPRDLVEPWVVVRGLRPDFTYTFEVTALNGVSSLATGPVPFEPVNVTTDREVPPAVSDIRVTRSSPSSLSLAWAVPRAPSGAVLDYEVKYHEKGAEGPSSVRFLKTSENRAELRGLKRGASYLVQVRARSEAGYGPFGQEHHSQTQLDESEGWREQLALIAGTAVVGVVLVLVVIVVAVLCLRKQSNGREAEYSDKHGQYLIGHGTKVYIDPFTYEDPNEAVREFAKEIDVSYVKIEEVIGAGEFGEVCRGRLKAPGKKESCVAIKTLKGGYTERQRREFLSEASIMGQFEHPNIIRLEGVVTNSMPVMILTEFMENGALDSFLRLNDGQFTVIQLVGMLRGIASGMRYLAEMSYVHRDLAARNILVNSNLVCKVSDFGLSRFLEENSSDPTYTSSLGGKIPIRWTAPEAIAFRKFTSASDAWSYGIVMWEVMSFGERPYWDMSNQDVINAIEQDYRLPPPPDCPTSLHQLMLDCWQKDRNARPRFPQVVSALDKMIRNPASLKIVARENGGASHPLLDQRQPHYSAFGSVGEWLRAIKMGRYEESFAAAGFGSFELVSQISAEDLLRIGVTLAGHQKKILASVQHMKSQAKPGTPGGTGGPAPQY
The test can be described thus: EphB4 kinase inhibition assay. The class given is biochemical. The procedure: (§1) Kinase activity and compound inhibition are investigated using one or more of the three assay formats described below. The ATP concentrations for each assay are selected to be close to the Michaelis-Menten constant (KM) for each individual kinase. Dose-response experiments are performed at 10 different inhibitor concentrations in a 384-well plate format. The data are fitted to four-parameter equation (2) below; where Y is the observed signal, X is the inhibitor concentration, Min is the background signal in the absence of enzyme (0% enzyme activity), Max is the signal in the absence of inhibitor (100% enzyme activity), IC50 is the inhibitor concentration at 50% enzyme inhibition and H represents the empirical Hill's slope to measure the cooperativity. Typically H is close to unity. Y=Min+(Max−Min)/(1+(X/IC50)^H) Equation (2) ^33P Phosphoryl Transfer Assay: […]
(§2) Greiner 384-well white, clear bottom, high binding plates are coated with 2 μg/well of protein or peptide substrate in a 50 μL volume overnight at ambient temperature. The coating buffer typically contains 40 μg/mL substrate, 22.5 mM Na2CO3, 27.5 mM NaHCO3, 150 mM NaCl and 3 mM NaN3. The coating solution is aspirated and the plates are washed once with 50 μL of assay buffer and padded dry. Subsequently compounds and enzymes are mixed with γ^33P-ATP (3.3 μCi/nmol) in a total volume of 20 uL in suitable assay buffers. The mixture is incubated at ambient temperature for 1.5-2.5 hrs and terminated by aspiration using a Molecular Devices EMBLA 96-head plate washer. The plates are subsequently washed 6-12 times with PBST or TBS buffer. Scintillation fluid (50 μl/well) is then added, the plates are sealed and activity assessed by liquid scintillation spectrometry using a Perkin Elmer MicroBeta TriLux.
(§3) In the LCCA assays, kinase activity is measured as the percent ATP consumed following the kinase reaction using luciferase-luciferin-coupled chemiluminescence. Greiner 384-well white, clear bottom, medium-binding plates are used for LCCA. Briefly, the kinase reaction is initiated by mixing compounds, ATP and kinase in a 20 uL volume. The mixture is incubated at ambient temperature for 2-4 hrs. At the end of the kinase reaction, a 20 uL luciferase-luciferin mix is added and the chemiluminescent signal is read using a Wallac Victor^2 reader. The luciferase-luciferin mix consists of 50 mM HEPES, pH 7.8, 8.5 ug/mL oxalic acid (pH 7.8), 5 (or 50) mM DTT, 0.4% Triton X-100, 0.25 mg/mL coenzyme A, 63 uM AMP, 28 ug/mL luciferin and 40,000 units of light/mL luciferase. For the LCCA assays, total ATP consumption has been standardized to 25-45% and the IC50 values correlates well with those determined by radiometric assays.
(§4) AlphaScreen technology is a proximity assay which utilizes the increase in fluorescent signal occurring when donor and acceptor beads are close in proximity. Biotinylated poly(Glu,Tyr) 4:1 is used as the kinase substrate, in conjunction with streptavidin-coated donor beads and anti-phosphortyrosine antibody PY100-coated acceptor beads. Upon phosphorylation, the peptide substrate can bind to both donor and acceptor beads giving rise to an increase in fluorescence. Compounds, ATP, biotinylated poly(Glu, Tyr) and kinases are mixed in a volume of 20 uL for 1 hr at ambient temperature using Greiner 384-well white clear bottom medium binding plates. Following incubation a 10 uL solution containing […] AlphaScreen beads, 75 mM Hepes, pH 7.4, 300 mM NaCl, 120 mM EDTA, 0.3% BSA and 0.03% Tween-20 is added to each well. After 2-16 hr incubation of the beads, plates are read in a Perkin Elmer AlphaQuest reader. The IC50 values correlates well with those of radiometric assays.

Test [2] deals with EGFR (Homo sapiens, UniProt P00533). The test can be described thus: EGFR kinase inhibition assay. Type of test: biochemical. The procedure:
as §1, §2, §3, §4

Test [3] addresses T2, flt-3 (Homo sapiens, UniProt P36888).
T2 construct: baculovirus expressed human Flt-3 kinase domain R571-S993
T2 sequence (P36888 571-993): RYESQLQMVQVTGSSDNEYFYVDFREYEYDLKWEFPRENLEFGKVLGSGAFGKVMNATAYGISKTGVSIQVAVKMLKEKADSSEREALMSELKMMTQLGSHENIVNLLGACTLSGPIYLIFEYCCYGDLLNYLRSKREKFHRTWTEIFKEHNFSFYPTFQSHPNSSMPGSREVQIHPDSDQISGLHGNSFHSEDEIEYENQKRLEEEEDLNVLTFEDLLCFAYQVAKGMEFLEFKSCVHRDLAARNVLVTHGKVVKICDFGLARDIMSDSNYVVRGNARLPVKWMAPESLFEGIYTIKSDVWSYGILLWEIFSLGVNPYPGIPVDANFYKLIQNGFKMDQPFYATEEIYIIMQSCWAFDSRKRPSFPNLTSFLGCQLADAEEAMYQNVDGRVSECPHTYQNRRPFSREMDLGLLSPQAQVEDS
The test can be described thus: flt-3 Luciferase-Coupled Chemiluminescent Kinase assay (LCCA). The class given is biochemical. The procedure: as §3
Flt-3 biochemical activity was assessed using a Luciferase-Coupled Chemiluminescent Kinase assay (LCCA) format. Kinase activity was measured as the percent ATP remaining following the kinase reaction. Remaining ATP was detected by luciferase-luciferin-coupled chemiluminescence. Specifically, the reaction was initiated by mixing test compounds, 5 μM ATP, 3 μM poly-EY and 5 nM Flt-3 (baculovirus expressed human Flt-3 kinase domain R571-S993) in a 20 uL assay buffer (20 mM Tris-HCL pH7.5, 10 mM MgCl2, 0.01% Triton X-100, 1 mM DTT, 2 mM MnCl2). The mixture is incubated at ambient temperature for 3 hours after which 20 uL luciferase-luciferin mix is added and the chemiluminescent signal read using a Wallac Victor^2 reader. The luciferase-luciferin mix consists of 50 mM HEPES, pH 7.8, 8.5 ug/mL oxalic acid (pH 7.8), 5 (or 50) mM DTT, 0.4% Triton X-100, 0.25 mg/mL coenzyme A, 63 uM AMP, 28 ug/mL luciferin and 40,000 units of light/mL luciferase.

Test [4] deals with c-Kit (Homo sapiens, UniProt P10721). Kind of test: c-Kit biochemical assay (AlphaScreen).
From the text: as §4
c-Kit biochemical activity was assessed using AlphaScreen™ (Perkin Elmer) technology, described above. Test compounds, ATP, biotinylated poly(Glu, Tyr) and c-Kit kinase were combined in a volume of 20 μL in a 384-well white, medium binding microtiter plate (Greiner). Reaction mixtures were incubated for 1 hr at ambient temperature. Reactions were quenched by addition of 10 uL of […] AlphaScreen bead suspension containing 75 mM Hepes, pH 7.4, 300 mM NaCl, 120 mM EDTA, 0.3% BSA and 0.03% Tween-20. After 16 hr incubation at ambient temperature plates were read using an AlphaQuest reader (Perkin Elmer).
A general note: Bead proximity is the source of the signal in Alpha formats.

Sequence of c-Kit (P10721 26-976): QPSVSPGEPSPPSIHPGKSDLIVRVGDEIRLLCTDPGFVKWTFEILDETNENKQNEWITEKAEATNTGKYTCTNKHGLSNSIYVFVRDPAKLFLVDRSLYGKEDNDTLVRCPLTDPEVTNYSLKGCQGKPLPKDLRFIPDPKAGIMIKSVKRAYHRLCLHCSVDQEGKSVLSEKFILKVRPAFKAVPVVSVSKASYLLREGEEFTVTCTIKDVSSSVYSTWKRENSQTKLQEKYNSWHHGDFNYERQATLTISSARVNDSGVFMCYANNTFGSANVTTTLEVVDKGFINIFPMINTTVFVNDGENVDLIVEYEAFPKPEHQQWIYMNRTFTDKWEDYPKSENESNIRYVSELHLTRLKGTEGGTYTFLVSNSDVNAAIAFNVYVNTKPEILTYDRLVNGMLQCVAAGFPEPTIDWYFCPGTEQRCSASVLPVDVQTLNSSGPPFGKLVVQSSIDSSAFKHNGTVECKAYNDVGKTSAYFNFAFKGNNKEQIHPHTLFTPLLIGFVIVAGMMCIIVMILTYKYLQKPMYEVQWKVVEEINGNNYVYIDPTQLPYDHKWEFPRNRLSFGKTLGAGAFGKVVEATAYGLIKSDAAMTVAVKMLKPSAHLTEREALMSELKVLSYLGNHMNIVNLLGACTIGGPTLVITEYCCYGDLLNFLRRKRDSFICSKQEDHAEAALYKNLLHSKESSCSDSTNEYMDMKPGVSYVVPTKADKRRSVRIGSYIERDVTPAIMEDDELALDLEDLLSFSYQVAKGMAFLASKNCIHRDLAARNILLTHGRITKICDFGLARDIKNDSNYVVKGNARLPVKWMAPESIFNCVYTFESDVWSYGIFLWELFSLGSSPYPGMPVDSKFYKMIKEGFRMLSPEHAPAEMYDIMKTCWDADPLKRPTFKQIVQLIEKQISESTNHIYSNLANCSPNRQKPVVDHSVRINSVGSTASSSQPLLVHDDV
Sequence of EGFR (P00533 25-1210, species assumed): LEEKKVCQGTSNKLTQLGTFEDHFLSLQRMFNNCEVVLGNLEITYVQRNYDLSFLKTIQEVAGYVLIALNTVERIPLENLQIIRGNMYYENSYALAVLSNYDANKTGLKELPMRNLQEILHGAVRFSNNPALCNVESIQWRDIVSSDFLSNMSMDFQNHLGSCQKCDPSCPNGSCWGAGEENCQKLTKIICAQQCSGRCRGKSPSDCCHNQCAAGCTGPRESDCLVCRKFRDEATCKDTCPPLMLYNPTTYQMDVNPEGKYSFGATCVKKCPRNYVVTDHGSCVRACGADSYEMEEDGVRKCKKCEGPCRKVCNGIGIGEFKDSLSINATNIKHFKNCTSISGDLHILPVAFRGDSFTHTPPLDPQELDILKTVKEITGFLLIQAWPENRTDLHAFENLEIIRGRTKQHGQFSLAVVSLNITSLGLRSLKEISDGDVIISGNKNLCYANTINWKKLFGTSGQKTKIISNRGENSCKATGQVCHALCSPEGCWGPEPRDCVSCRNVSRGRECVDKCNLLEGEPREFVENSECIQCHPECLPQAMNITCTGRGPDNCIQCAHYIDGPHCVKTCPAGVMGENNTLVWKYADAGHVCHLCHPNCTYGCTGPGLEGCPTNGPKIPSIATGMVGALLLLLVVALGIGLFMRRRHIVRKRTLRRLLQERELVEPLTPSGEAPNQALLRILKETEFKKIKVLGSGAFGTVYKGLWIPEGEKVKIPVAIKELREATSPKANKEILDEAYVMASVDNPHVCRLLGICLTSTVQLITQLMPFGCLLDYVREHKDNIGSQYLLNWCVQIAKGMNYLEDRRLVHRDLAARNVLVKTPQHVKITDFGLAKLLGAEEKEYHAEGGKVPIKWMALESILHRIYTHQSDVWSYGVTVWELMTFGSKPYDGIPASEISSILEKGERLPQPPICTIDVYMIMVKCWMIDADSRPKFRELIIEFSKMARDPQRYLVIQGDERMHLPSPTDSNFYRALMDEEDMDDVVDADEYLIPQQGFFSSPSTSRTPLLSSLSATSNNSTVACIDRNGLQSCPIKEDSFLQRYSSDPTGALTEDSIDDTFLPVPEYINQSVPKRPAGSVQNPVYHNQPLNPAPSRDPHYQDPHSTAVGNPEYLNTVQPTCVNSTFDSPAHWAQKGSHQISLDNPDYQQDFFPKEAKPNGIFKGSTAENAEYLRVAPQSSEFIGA

Take `CN1CCN(c2ccc3nc(-c4cc(-c5ccc(NC(=O)Nc6cccc(Br)c6)cc5)[nH]n4)[nH]c3c2)CC1` [Entry 7, N-(3-bromophenyl)-N′-(4-{3-[6-(4-methylpiperazin-1-yl)-1H-benzimidazol-2-yl]-1H-pyrazol-5-yl}phenyl)urea]: the IC50 (in general, the point on the concentration scale where inhibition reaches its midpoint) was over 5000 nM in test [1], over 5000 nM in test [2], under 50 nM in test [3] and under 50 nM in test [4].
On to `CN1CCN(c2ccc3[nH]c(-c4cc(-c5ccc(NC(=O)Nc6ccc(F)c(C(F)(F)F)c6)cc5)[nH]n4)nc3c2)CC1` [Entry 8, N-[4-fluoro-3-(trifluoromethyl)phenyl]-N′-(4-{3-[5-(4-methylpiperazin-1-yl)-1H-benzimidazol-2-yl]-1H-pyrazol-5-yl}phenyl)urea], for which the IC50 is over 5000 nM in test [1], over 5000 nM in test [2], under 50 nM in test [3] and under 50 nM in test [4].
As for `CN1CCN(c2ccc3[nH]c(-c4cc(-c5ccc(NC(=O)Nc6ccc(Oc7ccccc7)cc6)cc5)[nH]n4)nc3c2)CC1` [Entry 9, N-(4-{3-[5-(4-methylpiperazin-1-yl)-1H-benzimidazol-2-yl]-1H-pyrazol-5-yl}phenyl)-N′-[4-(phenyloxy)phenyl]urea], the IC50 in test [1] is over 5000 nM; in test [2] it was over 5000 nM; in test [3], under 50 nM; in test [4], under 50 nM.
Consider `COc1cc(NC(=O)Nc2ccc(-c3cc(-c4nc5ccc(N6CCN(C)CC6)cc5[nH]4)n[nH]3)cc2)cc(OC)c1` [Entry 11, N-[3,5-bis(methyloxy)phenyl]-N′-(4-{3-[6-(4-methylpiperazin-1-yl)-1H-benzimidazol-2-yl]-1H-pyrazol-5-yl}phenyl)urea], for which the half-inhibitory concentration (IC50) in test [1] is over 5000 nM; in test [2], over 5000 nM; in test [3], under 50 nM; in test [4], under 50 nM.
With `CN1CCN(c2ccc3[nH]c(-c4cc(-c5ccc(NC(=O)Nc6ccc(OC(F)(F)F)cc6)cc5)[nH]n4)nc3c2)CC1` [Entry 12, N-(4-{3-[5-(4-methylpiperazin-1-yl)-1H-benzimidazol-2-yl]-1H-pyrazol-5-yl}phenyl)-N′-{4-[(trifluoromethyl)oxy]phenyl} urea], the IC50 in test [1] is over 5000 nM; in test [2], over 5000 nM; in test [3] it was under 50 nM; in test [4] it was under 50 nM.
For `CN1CCN(c2ccc3[nH]c(-c4cc(-c5ccc(NC(=O)Nc6ccc(Cl)c(C(F)(F)F)c6)cc5)[nH]n4)nc3c2)CC1` [Entry 14, N-[4-chloro-3-(trifluoromethyl)phenyl]-N′-(4-{3-[5-(4-methylpiperazin-1-yl)-1H-benzimidazol-2-yl]-1H-pyrazol-5-yl}phenyl)urea], the IC50 in test [1] is over 5000 nM; in test [2], over 5000 nM; in test [3], under 50 nM; in test [4], under 50 nM.
As for `CN1CCN(c2ccc3[nH]c(-c4cc(-c5ccc(NC(=O)Nc6cccc(C(F)(F)F)c6)cc5)[nH]n4)nc3c2)CC1` [Entry 15, N-(4-{3-[5-(4-methylpiperazin-1-yl)-1H-benzimidazol-2-yl]-1H-pyrazol-5-yl}phenyl)-N′-[3-(trifluoromethyl)phenyl]urea], the 50% inhibitory concentration (IC50) in test [1] is 500 to 5000 nM; in test [2] it was over 5000 nM; in test [3], under 50 nM; in test [4], under 50 nM.
In the case of `CN1CCN(c2ccc(-c3cc(-c4ccc(NC(=O)Nc5ccc(Cl)c(C(F)(F)F)c5)cc4)[nH]n3)cc2)CC1` [Entry 16, N-[4-chloro-3-(trifluoromethyl)phenyl]-N′-(4-{3-[4-(4-methylpiperazin-1-yl)phenyl]-1H-pyrazol-5-yl}phenyl)urea], the IC50 is over 5000 nM in test [1], over 5000 nM in test [2], under 50 nM in test [3] and under 50 nM in test [4].
`CN1CCN(c2ccc3[nH]c(-c4cc(-c5ccc(NC(=O)Nc6ccc(Cl)cc6)cc5)[nH]n4)nc3c2)CC1` [Entry 18, N-(4-chlorophenyl)-N′-(4-{3-[5-(4-methylpiperazin-1-yl)-1H-benzimidazol-2-yl]-1H-pyrazol-5-yl}phenyl)urea]: the IC50 in test [1] was over 5000 nM; in test [2] it was over 5000 nM; in test [3], under 50 nM; in test [4], under 50 nM.
